Source: patent publication US20130017600A1, “ISOLATION AND/OR PRESERVATION OF DENDRITIC CELLS FOR PROSTATE CANCER IMMUNOTHERAPY” (NORTHWEST BIOTHERAPEUTICS, INC., priority 1995, published 2013)

How the values were obtained:
[1] = system: T cells (PBMC) obtained from prostate cancer patients; assay: T cell proliferation assay (3H-TdR incorporation) with PSMA peptide alone; type: cell-based, human
Procedure: One hundred thousand previously frozen T cells (designated “PBMC”) obtained from a prostate cancer patient were cultured in the presence or absence of 20
PSMA peptide in complete medium containing 10% heat-inactivated human serum and 1 unit/ml IL2. One μCi/well ^3H-Thymidine was added on day 6 and cultures were harvested 18 hours later. ^3H-TdR incorporation was counted in a liquid scintillation counter. Each experiment was done in 4 replicates.
One hundred thousand T cells, i.e. PBMC obtained from HLA-A2(+) or HLA-A2(−) prostate cancer patients were cultured in the presence or absence (i.e. “medium control”) of 20 μg PSM-P2 peptide for five (5) days in a humidified, 37° C., 5% CO2 incubator. On day 6, 1 μCi ^3H-Thymidine was added to each well. After another 24 h incubation, cells were harvested and the ^3H-TdR incorporated was counted in a liquid scintillation counter. Each experiment was done in triplicate. Results are presented in FIG. 10 as average cpm and standard error of the mean.

[2] = system: late stage prostate cancer patients; assay: Phase 1 clinical trial: T cell proliferation pre- and post-infusion (stimulation ratio); type: in vivo, human; conditions: 7 days after first infusion; all patients of the group; FIG. 11
Procedure: A phase 1 clinical trial has been established using five treatment groups of late stage prostate cancer patients. The groups were treated as follows: Group I, received peptide PSM-P1 having amino acid sequence LLHETDSAV (SEQ. ID. NO 1) only at 0.2, 2.0 and 20.0 μg; Group II, peptide PSM-P2 having amino acid sequence ALFDIESKV (SEQ. ID. NO. 2) only at 0.2, 2.0 and 20.0 μg; Group III, 1×10^6 (#3-4) or 5×10^6 (#1, 2) autologous dendritic cells only; Group IV, up to 2×10^7 autologous dendritic cells loaded with PSM-P1 (SEQ. ID. NO. 1); and Group V, up to 2×10^7 autologous DC's loaded with PSM-P2 (SEQ. ID. NO. 2). All treatments were delivered by infusion. Patients were monitored 7 days post-infusion and their immune function was analyzed by assessing T cell proliferation pre- and post-infusion using ^3H-TdR incorporation as described above in Section 9.

[3] = system: T cells proliferated as a result of the PSMA peptide; assay: Flow cytometric analysis (CD4/CD8) of T cells proliferated as a result of the PSMA peptide; type: cell-based, human; conditions: expanded 5 days with 2 μM peptide and 1 unit/ml IL2; FIG. 9
Procedure: The T cells proliferated as a result of the PSMA peptide were expanded in culture for 5 days, in complete medium containing 2 μM PSMA peptide and 1 unit/ml Il2 for 5 days prior to harvest. One million cells were incubated for 30 minutes on ice with anti-CD4, anti-CD8 antibodies or medium alone, followed by another 30 minute incubation with fluorescein isothiocyanate labelled-2° antibody. Fluorescence-bound was analyzed in a FACScan (Becton Dickinson, San Jose, Calif.) flow cytometer as described above. The percent CD4+ and CD8+ cells were calculated. Results are illustrated in FIG. 9.

[4] = system: previously frozen T cells (PBMC) of a prostate cancer patient; assay: T cell proliferation assay with previously cryopreserved autologous dendritic cells and purified PSMA; type: cell-based, human; conditions: previously cryopreserved DC's plus 5 μl/well purified PSMA; vs antigen alone or DC's alone; FIG. 6
Procedure: Dendritic cells were isolated from PBMC of a prostate cancer patient as described above in Section 6 and cultured, as described above, in Section 6, for 7 days in the presence of 500 units/ml GM-CSF and IL-4.
On day 7, the isolated DC's were harvested and cryopreserved using 90% fetal calf serum and 10% dimethylsulfoxide. The cryopreserved DC's were stored frozen for a period of time, thawed in a 37° C. water bath and transferred to a 15 ml polypropylene tube and centrifuged at 1200 rpm for 5 min. The thawed DC's were then resuspended in medium containing 10% heat-inactivated human serum and counted.
One hundred thousand previously frozen T cells obtained from peripheral blood of the same prostate cancer patient (PBMC) were cultured in the presence or absence of 10^4 DC's together with 5 μl/well purified PSMA (see Section 6.1.4 above) in a total volume of 200 μl medium containing 10% heat-inactivated human serum and 1 unit/ml IL-2. One μCi/well ^3H-Thymidine was added on day 6 and cultures were harvested 18 hours later. ^3H-TdR incorporation was counted in a liquid scintillation counter. Each experiment was done in 4 replicates. The average cpm and standard deviation are shown in the graph.

[5] = system: previously cryopreserved autologous T cells (PBMC) of a prostate cancer patient; assay: T cell proliferation assay with extended life span (EBV-transformed) dendritic cells; type: cell-based, human; conditions: antigen presented by extended life span DC's; TT 500 ng/ml or LNCaP lysate equivalent of 10^4 cells/ml; FIG. 7

Substance: LLHETDSAV [PSM-P1, peptide corresponding to amino acid residues 4-12 of PSMA]
- T cell proliferation (3H-TdR incorporation) ([1]; PBMC of a prostate cancer patient with peptide vs absence of peptide, FIG. 8): greatly enhanced T cell proliferation
- increase in T cell proliferation post- vs pre-infusion [2]: did not demonstrate any increase in T cell proliferation
- CTL's share of the T cells stimulated by the peptide [3]: about 41%

Substance: ALFDIESKV [PSM-P2, peptide corresponding to amino acid residues 711-719 of PSMA]
- T cell proliferation (3H-TdR incorporation), HLA-A2(−) T cells ([1]; 20 μg peptide, 5 days, FIG. 10): less dramatic enhanced T cell proliferation
- T cell proliferation (3H-TdR incorporation), HLA-A2(+) T cells ([1]; 20 μg peptide, 5 days, vs medium control, FIG. 10): greatly enhanced cell proliferation

Substance: PSMA: purified prostate specific membrane antigen, immunoprecipitated from human semen with monoclonal antibody 7E11-C5
- 3HTdR incorporation (T cell proliferation) [4]: highly significant increase
- 3HTdR incorporation (T cell proliferation) [5]: significantly increased
